Results published in patent US11655217B2, “Pyrazole MAGL inhibitors” (H. Lundbeck A/S, priority 2017, dated 2023).

Tests used:
[1] = molecular target: MAGL (Mus musculus (Mouse), UniProt O35678); experiment: Mouse brain proteomes from inhibitor treated mice (oral gavage, sacrificed 4 h after administration, ABPP analysis); details: 5 mg/kg oral gavage
Experimental: (§1) Preparation of Mouse Brain Proteomes from Inhibitor Treated Mice.
(§2) Inhibitors were administered to wild-type C57Bl/6J by oral gavage in a vehicle of polyethylene glycol.

[2] = molecular target: FAAH (Mus musculus (Mouse), UniProt O08914); experiment: Mouse brain proteomes from inhibitor treated mice (oral gavage, sacrificed 4 h after administration, ABPP analysis), FAAH; details: 5 mg/kg oral gavage
Chain of FAAH (O08914 whole entry): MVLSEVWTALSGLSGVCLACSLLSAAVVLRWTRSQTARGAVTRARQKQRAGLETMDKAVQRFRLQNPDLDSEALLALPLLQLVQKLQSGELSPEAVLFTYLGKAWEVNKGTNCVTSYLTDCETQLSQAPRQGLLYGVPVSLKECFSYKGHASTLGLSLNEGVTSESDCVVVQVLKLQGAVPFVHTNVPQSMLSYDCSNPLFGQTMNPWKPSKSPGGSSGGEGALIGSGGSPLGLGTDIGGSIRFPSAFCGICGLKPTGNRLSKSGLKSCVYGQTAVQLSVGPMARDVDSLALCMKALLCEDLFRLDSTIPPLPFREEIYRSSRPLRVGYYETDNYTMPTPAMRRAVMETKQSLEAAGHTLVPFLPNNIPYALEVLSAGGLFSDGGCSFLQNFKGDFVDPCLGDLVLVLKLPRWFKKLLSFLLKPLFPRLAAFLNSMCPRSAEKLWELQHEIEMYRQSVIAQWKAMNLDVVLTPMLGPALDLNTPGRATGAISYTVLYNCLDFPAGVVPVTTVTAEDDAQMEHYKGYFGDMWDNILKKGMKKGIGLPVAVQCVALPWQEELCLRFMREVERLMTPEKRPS
Experimental: as §1, §2

Chain of MAGL (O35678 whole entry): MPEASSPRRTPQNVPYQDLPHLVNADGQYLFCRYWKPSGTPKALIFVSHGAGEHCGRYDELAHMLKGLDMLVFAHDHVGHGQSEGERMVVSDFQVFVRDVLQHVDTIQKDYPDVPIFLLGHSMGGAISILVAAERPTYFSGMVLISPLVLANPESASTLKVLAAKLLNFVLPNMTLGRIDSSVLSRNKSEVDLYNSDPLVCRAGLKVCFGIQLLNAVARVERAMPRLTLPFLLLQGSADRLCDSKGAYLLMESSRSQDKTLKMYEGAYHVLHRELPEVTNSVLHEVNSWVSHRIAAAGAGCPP

| SMILES | MAGL % inh. 5 mg/kg (mouse) [1] | FAAH % inh. 5 mg/kg (mouse) [2] |
| --- | --- | --- |
| O=C(O)c1ccn(C(=O)N2CCC3(CCCN3Cc3ccc(C(F)(F)F)cc3N3CCCC3)CC2)n1 [Example 93, 1-(1-(2-(pyrrolidin-1-yl)-4-(trifluoromethyl)benzyl)-1,8-diazaspiro[4.5]decane-8-carbonyl)-1H-pyrazole-3-carboxylic acid] | D (% inhibition is greater than or equal to 0% and less than 25%) | D (% inhibition is greater than or equal to 0% and less than 25%) |
| O=C(O)c1ccn(C(=O)N2CCN(Cc3ccc(Cl)cc3N3C4CCC3COC4)CC2)n1 [Example 105, 1-(4-(2-(3-oxa-8-azabicyclo[3.2.1]octan-8-yl)-4-chlorobenzyl)piper-azine-1-carbonyl)-1H-pyrazole-3-carboxylic acid] | D (% inhibition is greater than or equal to 0% and less than 25%) | D (% inhibition is greater than or equal to 0% and less than 25%) |
| Cc1cn(C(=O)N2CCC3(CCN(Cc4cc(Cl)ccc4C(F)(F)F)C3)CC2)nc1C(=O)O [Example 130, 1-(2-(5-chloro-2-(trifluoromethyl)benzyl)-2,8-diazaspiro[4.5]decane-8-carbonyl)-4-methyl-1H-pyrazole-3-carboxylic acid] | D (% inhibition is greater than or equal to 0% and less than 25%) | D (% inhibition is greater than or equal to 0% and less than 25%) |
| O=C(O)c1nn(C(=O)N2CCC3(CCN(Cc4cc(Cl)ccc4C(F)(F)F)C3)CC2)cc1C(F)(F)F [Example 148, 1-(2-(5-chloro-2-(trifluoromethyl)benzyl)-2,8-diazaspiro[4.5]decane-8-carbonyl)-4-(trifluoromethyl)-1H-pyrazole-3-carboxylic acid] | D (% inhibition is greater than or equal to 0% and less than 25%) | C (% inhibition is greater than or equal to 25% and less than 50%) |
| O=C(O)c1ccn(C(=O)N2CCN(Cc3ccc(C(F)(F)F)cc3N3CCN(C4CC4)CC3)CC2)n1 [Example 6, 1-(4-(2-(4-Cyclopropylpiperazin-1-yl)-4-(trifluoromethyl)benzyl)piperazine-1-carbonyl)-1H-pyrazole-3-carboxylic Acid] | D (% inhibition is greater than or equal to 0% and less than 25%) | D (% inhibition is greater than or equal to 0% and less than 25%) |
| O=C(O)c1ccn(C(=O)N2CCN(Cc3ccc(C(F)(F)F)cc3N3C4CCC3COC4)CC2)n1 [Example 118, 1-(4-(2-(3-oxa-8-azabicyclo[3.2.1]octan-8-yl)-4-(trifluoromethyl)benzyl)piperazine-1-carbonyl)-1H-pyrazole-3-carboxylic acid] | D (% inhibition is greater than or equal to 0% and less than 25%) | D (% inhibition is greater than or equal to 0% and less than 25%) |
| O=C(O)c1ccn(C(=O)N2CCC3(CCCN3Cc3cc(N4CCCC4)cc(C(F)(F)F)c3)CC2)n1 [Example 88, 1-(1-(3-(pyrrolidin-1-yl)-5-(trifluoromethyl)benzyl)-1,8-diazaspiro[4.5]decane-8-carbonyl)-1-1H-pyrazole-3-carboxylic acid] | D (% inhibition is greater than or equal to 0% and less than 25%) | D (% inhibition is greater than or equal to 0% and less than 25%) |
| CN(Cc1ccc(C(F)(F)F)cc1-c1nccs1)C1(C)CCN(C(=O)n2ccc(C(=O)O)n2)CC1 [Example 10, 1-(4-methyl-4-(methyl(2-(thiazol-2-yl)-4-(trifluoromethyl)benzyl)amino)piperidine-1-carbonyl)-1H-pyrazole-3-carboxylic Acid] | D (% inhibition is greater than or equal to 0% and less than 25%) | D (% inhibition is greater than or equal to 0% and less than 25%) |
| O=C(O)c1ccn(C(=O)N2C[C@H]3C[C@H](OCc4ccc(Oc5ccc(Cl)cc5)cc4)C[C@H]3C2)n1 [Example 55, 1-(trans-5-((4-(4-chlorophenoxy)benzyl)-oxy)octahydrocyclo-penta-[c]pyrrole-2-carbonyl)-1H-pyrazole-3-carboxylic acid] | D (% inhibition is greater than or equal to 0% and less than 25%) | D (% inhibition is greater than or equal to 0% and less than 25%) |
| O=C(O)c1nn(C(=O)N2CCN(Cc3cccc(Oc4ccc(Cl)cc4)c3)CC2)cc1Cl [Example 132, 4-chloro-1-(4-(3-(4-chlorophenoxy)benzyl)piperazine-1-carbonyl)-1H-pyrazole-3-carboxylic acid] | D (% inhibition is greater than or equal to 0% and less than 25%) | D (% inhibition is greater than or equal to 0% and less than 25%) |
| C[C@H]1CCCN1c1cc(C(F)(F)F)ccc1CN1CCN(C(=O)n2ccc(C(=O)O)n2)CC1 [Example 104, (S)-1-(4-(2-(2-methylpyrrolidin-1-yl)-4-(trifluoromethyl)benzyl)piperazine-1-carbonyl)-1H-pyrazole-3-carboxylic acid] | D (% inhibition is greater than or equal to 0% and less than 25%) | D (% inhibition is greater than or equal to 0% and less than 25%) |
| Cc1c(CO[C@H]2C[C@@H]3CN(C(=O)n4ccc(C(=O)O)n4)C[C@@H]3C2)cccc1C(F)(F)F [Example 159, 1-(trans-5-((2-methyl-3-(trifluoromethyl)benzyl)oxy)octa-hydrocyclopenta[c]pyrrole-2-carbonyl)-1H-pyrazole-3-carboxylic acid] | D (% inhibition is greater than or equal to 0% and less than 25%) | D (% inhibition is greater than or equal to 0% and less than 25%) |
| O=C(O)c1ccn(C(=O)N2CCN(Cc3ccc(Cl)cc3N3CC4COCC4C3)CC2)n1 (stereo not drawn) [Example 111, 1-(4-(4-chloro-2-(tetrahydro-1H-furo[3,4-c]pyrrol-5(3H)-yl)benzyl)piperazine-1-carbonyl)-1H-pyrazole-3-carboxylic acid] | D (% inhibition is greater than or equal to 0% and less than 25%) | D (% inhibition is greater than or equal to 0% and less than 25%) |
| NC(=O)c1ccn(C(=O)N2CCN(Cc3cccc(C(F)(F)F)c3N3CCOCC3)CC2)n1 [Example 199, 1-(4-(2-morpholino-3-(trifluoromethyl)benzyl)piperazine-1-carbonyl)-1H-pyrazole-3-carboxamide] | A (% inhibition is greater than or equal to 75%) | D (% inhibition is greater than or equal to 0% and less than 25%) |
| O=C(O)c1ccn(C(=O)N2CCN(Cc3cc4cc(Cl)ccc4s3)CC2)n1 [Example 187, 1-(4-((5-chlorobenzo[b]thio-phen-2-yl)methyl)piperazine-1-carbonyl)-1H-pyrazole-3-carboxylic acid] | D (% inhibition is greater than or equal to 0% and less than 25%) | D (% inhibition is greater than or equal to 0% and less than 25%) |
| O=C(O)c1ccn(C(=O)N2CCN(Cc3cccc(Oc4cc(C(F)(F)F)ccn4)c3)CC2)n1 [Example 57, 1-(4-(3-((4-(trifluoromethyl)pyridin-2-yl)oxy)benzyl)piperazine-1-carbonyl)-1H-pyrazole-3-carboxylic acid] | D (% inhibition is greater than or equal to 0% and less than 25%) | D (% inhibition is greater than or equal to 0% and less than 25%) |
| O=C(O)c1nn(C(=O)N2CCC3(CCCN3Cc3cc4ccc(C(F)(F)F)cc4s3)CC2)cc1Cl [Example 139, 4-chloro-1-(1-((6-(trifluoromethyl)benzo[b]thiophen-2-yl)methyl)-1,8-diazaspiro[4.5]decane-8-carbonyl)-1H-pyrazole-3-carboxylic acid] | D (% inhibition is greater than or equal to 0% and less than 25%) | D (% inhibition is greater than or equal to 0% and less than 25%) |
| O=C(O)c1ccn(C(=O)N2C[C@H]3C[C@H](OCc4cccc(C(F)(F)F)c4)C[C@H]3C2)n1 [Example 157, 1-(trans-5-((3-(trifluoromethyl)benzyl)oxy)octa-hydrocyclopenta[c]pyrrole-2-carbonyl)-1H-pyrazole-3-carboxylic acid] | D (% inhibition is greater than or equal to 0% and less than 25%) | D (% inhibition is greater than or equal to 0% and less than 25%) |
| O=C(O)c1ccn(C(=O)N2CCN(Cc3ccc(C(F)(F)F)c(N4CCCC4)c3)CC2)n1 [Example 7, 1-(4-(3-(Pyrrolidin-1-yl)-4-(trifluoromethyl)benzyl)piperazine-1-carbonyl)-1H-pyrazole-3-carboxylic Acid] | D (% inhibition is greater than or equal to 0% and less than 25%) | D (% inhibition is greater than or equal to 0% and less than 25%) |
| CC1CCC(C)N1c1cc(C(F)(F)F)ccc1CN1CCN(C(=O)n2ccc(C(=O)O)n2)CC1 (stereo not drawn) [Example 114, 1-(4-(2-(2,5-dimethylpyrrolidin-1-yl)-4-(trifluoromethyl)benzyl)piperazine-1-carbonyl)-1H-pyrazole-3-carboxylic acid] | D (% inhibition is greater than or equal to 0% and less than 25%) | D (% inhibition is greater than or equal to 0% and less than 25%) |
| CN(Cc1ccc(C(F)(F)F)cc1N1CCOCC1)C1(C)CCN(C(=O)n2ccc(C(=O)O)n2)CC1 [Example 4, 1-(4-Methyl-4-(methyl(2-morpholino-4-(trifluoromethyl)benzyl)amino)piperidine-1-carbonyl)-1H-pyrazole-3-carboxylic Acid] | D (% inhibition is greater than or equal to 0% and less than 25%) | D (% inhibition is greater than or equal to 0% and less than 25%) |
